The text below walks through data of paper PMC2233693 (The Journal of General Physiology, 2000).

Positions count from the first letter of the chain named. Like-named read-outs stand apart in the source and are kept apart here.

Common to all, as to type: biochemical
Test [1] addresses T1, E340D mutant bovine olfactory CNG channel (Bos taurus, UniProt Q03041, E340D).
T1 sequence (Q03041 1-663 E340D): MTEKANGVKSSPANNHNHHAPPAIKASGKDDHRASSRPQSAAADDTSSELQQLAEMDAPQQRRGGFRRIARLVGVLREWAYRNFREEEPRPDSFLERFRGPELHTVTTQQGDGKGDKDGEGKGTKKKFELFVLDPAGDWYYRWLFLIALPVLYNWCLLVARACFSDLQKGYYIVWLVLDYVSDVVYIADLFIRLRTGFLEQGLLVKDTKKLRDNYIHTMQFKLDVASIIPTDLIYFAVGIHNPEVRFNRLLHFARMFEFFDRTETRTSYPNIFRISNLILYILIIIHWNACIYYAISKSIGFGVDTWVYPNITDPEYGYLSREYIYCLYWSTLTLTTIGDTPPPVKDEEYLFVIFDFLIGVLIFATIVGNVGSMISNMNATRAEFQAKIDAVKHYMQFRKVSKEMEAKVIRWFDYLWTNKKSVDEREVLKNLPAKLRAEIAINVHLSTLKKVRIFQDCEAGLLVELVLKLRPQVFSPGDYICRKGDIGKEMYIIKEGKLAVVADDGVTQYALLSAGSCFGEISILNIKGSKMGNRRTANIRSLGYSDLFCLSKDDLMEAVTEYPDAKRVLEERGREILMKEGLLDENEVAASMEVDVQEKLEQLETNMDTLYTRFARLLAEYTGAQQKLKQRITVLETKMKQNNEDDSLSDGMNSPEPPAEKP

Test [2] deals with T2, E340Q mutant bovine olfactory CNG channel (Bos taurus, UniProt Q03041, E340Q).
T2 sequence (Q03041 1-663 E340Q): T1 sequence (Q03041 1-663 E340D) with D340Q

Test [3] addresses T1, E340D mutant bovine olfactory CNG channel. The conditions noted are these: cGMP.
Test [4] deals with T3, E340N mutant bovine olfactory CNG channel (Bos taurus, UniProt Q03041, E340N).
T3 sequence (Q03041 1-663 E340N): T1 sequence (Q03041 1-663 E340D) with D340N
The conditions noted are these: for P max (+80 mV) / P max (−80 mV): cGMP.

Setting [5] is: read-out: K 1/2,cG, −80 mV, single patch, Fig. 1 fit.
Where [6] appears, read: −80 mV, single patch, Fig. 1 fit.
[7] abbreviates: 3 μM cGMP, +80 mV, amplitude histogram, Fig. 3.
The mark [8] stands for this setting: 100 μM cGMP, +80 mV, amplitude histogram, Fig. 3.
The mark [9] stands for this setting: high level of current determined with respect to low level.

Consider `Nc1nc2c(ncn2[C@@H]2O[C@@H]3COP(=O)(O)O[C@H]3[C@H]2O)c(=O)[nH]1` [cGMP], for which the entries for the “n(−80 mV), Hill coefficient” value in test [1] (cGMP) and in test [2] (cGMP) were 2.6 ± 0.4 and 2.7 ± 0.5, respectively. Besides, the “I(−80 mV)/I(+80 mV)” value came out at 1.30 ± 0.10 in test [1] (cGMP-gated current) and 0.19 ± 0.06 in test [2] (cGMP-gated current). In addition, the EC50 in test [1] (read-out: K 1/2, cGMP, +80 mV) turned out to be 4.8 ± 1.1 µM; in test [1] (read-out: K 1/2, cGMP, −80 mV), 4.9 ± 1.1 µM; in test [1] (setting [5]) it was 4.5 µM; in test [2] (read-out: K 1/2, cGMP, +80 mV), 4 ± 1.2 µM; in test [2] (read-out: K 1/2, cGMP, −80 mV), 5.6 ± 1.7 µM; in test [2] (setting [5]) it was 4.8 µM. For the same molecule, the “n cG” value in test [1] (setting [6]) stood at 2.7; in test [2] (setting [6]) it was 2.4. The “P max (+80 mV)” value in test [3] is on record as 0.985 ± 0.007; in test [4] (setting [9]) it was 0.10 ± 0.07; in test [4] (low level of current) it was 0.87 ± 0.02. Further, the results for the “P max (−80 mV)” value in test [3], in test [4] (setting [9]) and in test [4] (low level of current) were 0.987 ± 0.007, 0.04 ± 0.01 and 0.96 ± 0.01, respectively. Besides, the “L, equilibrium gating constant” value in test [3] (allosteric model fit, mean ± SD) is listed as 66 ± 15. In addition, the figures for the P closed in test [4] (setting [7]) and in test [4] (setting [8]) were 0.765 and 0.01, respectively. The “P o,high” value was found to be 0.015 in test [4] (setting [7]) and 0.065 in test [4] (setting [8]). Further, in test [4] (setting [8]), the “P o,low” value stood at 0.925.
